Assay results taken from article PMC7761018, “Green Tea Catechins Induce Inhibition of PTP1B Phosphatase in Breast Cancer Cells with Potent Anti-Cancer Properties: In Vitro Assay, Molecular Docking, and Dynamics Studies” (Antioxidants, 2020).

Target: T1, PTP1B (Homo sapiens, UniProt P18031)
T1 construct: gene PTPN1
T1 sequence (P18031 1-435): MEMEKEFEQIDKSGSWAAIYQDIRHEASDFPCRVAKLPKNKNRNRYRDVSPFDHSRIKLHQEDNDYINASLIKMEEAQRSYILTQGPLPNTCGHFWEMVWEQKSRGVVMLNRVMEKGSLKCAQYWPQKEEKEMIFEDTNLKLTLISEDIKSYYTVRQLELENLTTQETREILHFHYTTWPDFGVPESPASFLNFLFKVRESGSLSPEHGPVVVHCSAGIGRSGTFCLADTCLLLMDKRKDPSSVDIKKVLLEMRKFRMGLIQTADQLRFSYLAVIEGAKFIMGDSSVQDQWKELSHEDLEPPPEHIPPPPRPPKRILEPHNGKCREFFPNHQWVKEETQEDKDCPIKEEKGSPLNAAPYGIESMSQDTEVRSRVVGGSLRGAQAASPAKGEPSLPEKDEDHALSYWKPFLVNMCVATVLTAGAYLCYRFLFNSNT
Test: recombinant PTP1B pNPP hydrolysis assay, absorbance at […] nm
Assay type: biochemical

For Oc1cc(O)c2c(c1)O[C@H](c1cc(O)c(O)c(O)c1)[C@H](O)C2 [EGC, epigallocatechin], the IC50 was 104 ± 10.1 µM.
